In patent US11147272B2, “Pyridone compounds and agricultural and horticultural fungicides comprising the same as active ingredients” (MITSUI CHEMICALS AGRO, INC., priority 2017, dated 2021):

Legend:
Puccinia recondita = test: Test Example E: Brown rust on wheat; assay type: in vivo; conditions: 250 ppm drug solution sprayed on test plant
Alternaia brassicicola = test: Test Example C: Alternaria sooty spot on cabbage; assay type: in vivo; conditions: 250 ppm drug solution sprayed on test plant
Source text: Seeds of a test plant (cabbage variety: Shikidori) were planted and cultivated until the cotyledons extended.
<Control Value> Control value=100{1−(n/3)}

Botrytis cinerea = test: Test Example B: Gray mold on tomato; conditions: 250 ppm drug solution sprayed on test plant
Magnaporthe grisea = test: whole plant or invertebrate; assay type: in vivo; conditions: 250 ppm drug solution sprayed on test plant
[1] = system: Colletotrichum orbiculare; test: Test Example H: Anthracnose on cucumber; conditions: 250 ppm drug solution sprayed (2.5 ml/pot), cucumber Sagami Hanjiro, 6 to 10 days after inoculation
Phytophthora infestans = test: whole plant or invertebrate; assay type: in vivo; conditions: 250 ppm drug solution sprayed on test plant
Plasmopara viticola = test: Test Example G: Downy mildew on vine; conditions: 250 ppm drug solution sprayed (2.5 ml/pot), grape Neomuscat, 7 to 10 days after inoculation
[2] = system: Blumeria graminis f. sp. hordei; test: Test Example D: Powdery mildew on barley; conditions: 250 ppm drug solution sprayed on test plant

SMILES | Test E control value (Puccinia recondita) | Test C control value (Alternaia brassicicola) | Test B control value (Botrytis cinerea) | Test A control value (Magnaporthe grisea) | Test H control value [1] | Test F control value (Phytophthora infestans) | Test G control value (Plasmopara viticola) | Test D control value [2]
C#CCOc1cc(F)c(-c2c(CCC)ccc(=O)n2CC)c(F)c1 [compound 459] | H (more than 50% control value) | H (more than 50% control value) | H (more than 50% control value) | H (more than 50% control value) | H (more than 50% control value) | L (50% or less control value) | H (more than 50% control value) | H (more than 50% control value)
CC#CCOc1cc(F)c(-c2c(CCC)ccc(=O)n2CC)c(F)c1 [compound 460] | H (more than 50% control value) | H (more than 50% control value) | H (more than 50% control value) | H (more than 50% control value) | H (more than 50% control value) | L (50% or less control value) | H (more than 50% control value) | H (more than 50% control value)
CC#CCOc1cc(F)c(-c2c(CCC)cc(Cl)c(=O)n2CC)c(F)c1 [compound 461] | H (more than 50% control value) | H (more than 50% control value) | H (more than 50% control value) | H (more than 50% control value) | H (more than 50% control value) | L (50% or less control value) | H (more than 50% control value) | H (more than 50% control value)
CC#CCOc1cc(F)c(-c2c(CCC)cc(Br)c(=O)n2CC)c(F)c1 [compound 462] | H (more than 50% control value) | H (more than 50% control value) | H (more than 50% control value) | L (50% or less control value) | H (more than 50% control value) | H (more than 50% control value) | L (50% or less control value) | L (50% or less control value)
C#CCOc1cc(F)c(-c2c(CCC)cc(Cl)c(=O)n2CC)c(F)c1 [compound 463] | H (more than 50% control value) | H (more than 50% control value) | H (more than 50% control value) | H (more than 50% control value) | H (more than 50% control value) | L (50% or less control value) | H (more than 50% control value) | H (more than 50% control value)
C#CCOc1cc(F)c(-c2c(CCC)cc(Br)c(=O)n2CC)c(F)c1 [compound 464] | H (more than 50% control value) | H (more than 50% control value) | H (more than 50% control value) | L (50% or less control value) | H (more than 50% control value) | L (50% or less control value) | L (50% or less control value) | H (more than 50% control value)
CCn1c(-c2c(F)cc(F)cc2F)c(C(C)(OC)C(C)C)cc(Br)c1=O (centres unmarked) [compound 465] | H (more than 50% control value) | H (more than 50% control value) | H (more than 50% control value) | H (more than 50% control value) | H (more than 50% control value) | L (50% or less control value) | H (more than 50% control value) | H (more than 50% control value)
CCOC(C)(c1cc(Br)c(=O)n(CC)c1-c1c(F)cc(F)cc1F)C(C)C (centres unmarked) [compound 466] | L (50% or less control value) | H (more than 50% control value) | L (50% or less control value) | L (50% or less control value) | L (50% or less control value) | L (50% or less control value) | L (50% or less control value) | H (more than 50% control value)
CCn1c(-c2c(F)cc(OC)cc2F)c(C(C)(OC)C(C)C)cc(Br)c1=O (centres unmarked) [compound 467] | H (more than 50% control value) | H (more than 50% control value) | H (more than 50% control value) | H (more than 50% control value) | H (more than 50% control value) | L (50% or less control value) | H (more than 50% control value) | H (more than 50% control value)
CCOC(C)(c1cc(Br)c(=O)n(CC)c1-c1c(F)cc(OC)cc1F)C(C)C (centres unmarked) [compound 468] | H (more than 50% control value) | H (more than 50% control value) | H (more than 50% control value) | H (more than 50% control value) | H (more than 50% control value) | H (more than 50% control value) | H (more than 50% control value) | H (more than 50% control value)
CCCc1ccc(=O)n(CC(F)F)c1-c1c(F)cc(F)cc1F [compound 470] | L (50% or less control value) | H (more than 50% control value) | L (50% or less control value) | L (50% or less control value) | H (more than 50% control value) | L (50% or less control value) | L (50% or less control value) | L (50% or less control value)
CCCc1cc(Cl)c(=O)n(CC(F)F)c1-c1c(F)cc(F)cc1F [compound 471] | H (more than 50% control value) | H (more than 50% control value) | H (more than 50% control value) | H (more than 50% control value) | H (more than 50% control value) | L (50% or less control value) | H (more than 50% control value) | H (more than 50% control value)
CCCc1cc(Br)c(=O)n(CC(F)F)c1-c1c(F)cc(F)cc1F [compound 472] | H (more than 50% control value) | H (more than 50% control value) | H (more than 50% control value) | H (more than 50% control value) | H (more than 50% control value) | L (50% or less control value) | H (more than 50% control value) | H (more than 50% control value)
